Results on six compounds are retold here after PMC7076710, “Synthesis, Identification, and Structure–Activity Relationship Analysis of GATA4 and NKX2-5 Protein–Protein Interaction Modulators” (Journal of Medicinal Chemistry, 2019).

Assay type in all cases: cell-based
The target in data set [1] is T1, NKX2-5 transcriptional activity (Mus musculus, UniProt P42582).
T1 construct: expressed in transfected cells; host or cells: COS-1
Nature of the data set: NKX2-5 luciferase reporter assay (3xNKE reporter, COS-1 cells). The settings on record: COS-1, luciferase reporter activity relative to control; for activity at 3 µM: read-out: NKX.3µM; for activity at 10 µM: read-out: NKX.10µM. For orientation: Reporter assays use an easily measured gene product as a stand-in for the process of interest.

Data set [2] concerns rat BNP promoter activity in neonatal rat ventricular myocytes. Nature of the data set: BNP promoter luciferase reporter in neonatal cardiomyocytes with or without endothelin-1. The method, then: Five compounds (GATA4–NKX2-5 synergy inhibitors 1, 61, and 65; the synergy activator 2; and the NKX2-5 activity inhibitor 47c) were selected for studies in neonatal cardiomyocytes, which were treated with endothelin-1 (ET-1), a well-established hypertrophic agonist that activates the gene expression of both ANP and BNP (Figure 4). The myocytes were transfected with construct containing −534/+4 proximal region of rat BNP promoter with GATA4 and NKX2-5 binding sites in front of luciferase before exposure to compounds and ET-1, which was added 1 h after the compounds.
Figure 4 Effects of the compounds 1, 2, 47c, 61, and 65 on BNP gene activation in cardiomyocytes. Neonatal cardiomyocytes were transfected with rat BNP luciferase reporter for 24 h. The cells were exposed to compounds and 1 h later to endothelin-1 (ET-1) for 24 h. The results are expressed as +SD (n = 3 or 9 for DMSO groups). ***P < 0.001 vs DMSO; **P < 0.01 vs DMSO; *P < 0.05 vs DMSO (one-way ANOVA followed by Tukey’s HSD or Welch ANOVA followed by Games–Howell); ^###P < 0.001 vs DMSO, no stimulus (independent samples Student’s t test).
The plasmids expressing mouse GATA4 protein, pMT2-GATA4, and empty pMT2 were gifts from D. B. Wilson (Department of Pediatrics, St. Louis Children’s Hospital, St. Louis, MO).[44] The plasmids expressing mouse NKX2-5 protein, pMT2-NKX2-5, have been described earlier.[28] The luciferase reporter plasmid used in GATA4–NKX2-5 transcriptional synergy assay and NKX transcriptional assay, pGL3-3xHA, contains three high affinity binding sites for NKX2-5.[28] The luciferase reporter plasmid used in GATA transcriptional assay, NP-112, contains tandem GATA-sites and minimal promoter of rat brain natriuretic peptide (BNP) gene.[45] The pGL3-BNP luciferase reporter containing −534/+4 bp rat BNP proximal promoter described previously was used in hypertrophy assay.[46]
The neonatal rat ventricular myocytes were isolated from 2- to 3-day-old Wistar rats, as described earlier.[29],[32] Rat pups were acquired from the experimental animal facility of the University of Helsinki with an internal use license (KEK17-012). Animals were housed in standard conditions, and their handling and all procedures were carried out in accordance with University of Helsinki institutional guidelines, which conform to the National Research Council (U.S.) Guide for the Care and Use of Laboratory Animals.[47] The cells were seeded at 50 000 cells/well in Isoplate-96 microplates (PerkinElmer, Turku, Finland) and cultured for 18–20 h with Dulbecco’s modified Eagle medium (DMEM)/F12 culture medium containing 2.5 mM L-glutamine, supplemented with 100 IU/mL penicillin–streptomycin and 10% fetal bovine serum (all from Gibco, Thermo Scientific). Transfections were carried out for 24 h in serum free media (CSFM; DMEM/F12, 2.5 mg/mL bovine serum albumin, 1 μM insulin, 2.5 mM L-glutamine, 32 nM selenium, 2.8 mM sodium pyruvate, 5.64 μg/mL transferrin, 1 nM T3, and 100 IU/mL PS) by using 100 ng of pGL3-BNP luciferase plasmid per well in a 1:3 ratio of DNA/transfection reagent (Fugene 6, Promega). […] After 24 h, the luminescence was measured as above.
Results from cardiomyocyte experiments are expressed as mean + SD from at least three independent experiments. Data were analyzed using IBM SPSS Statistics 24 software. […] Significance between ET-1 and DMSO samples was analyzed with independent samples Student’s t test. […]

The target of data set [3] is T2, GATA4–NKX2-5 transcriptional synergy (Mus musculus, UniProt P42582+Q08369).
T2 construct: expressed in transfected cells; host or cells: COS-1
T2 sequence (Q08369 whole entry): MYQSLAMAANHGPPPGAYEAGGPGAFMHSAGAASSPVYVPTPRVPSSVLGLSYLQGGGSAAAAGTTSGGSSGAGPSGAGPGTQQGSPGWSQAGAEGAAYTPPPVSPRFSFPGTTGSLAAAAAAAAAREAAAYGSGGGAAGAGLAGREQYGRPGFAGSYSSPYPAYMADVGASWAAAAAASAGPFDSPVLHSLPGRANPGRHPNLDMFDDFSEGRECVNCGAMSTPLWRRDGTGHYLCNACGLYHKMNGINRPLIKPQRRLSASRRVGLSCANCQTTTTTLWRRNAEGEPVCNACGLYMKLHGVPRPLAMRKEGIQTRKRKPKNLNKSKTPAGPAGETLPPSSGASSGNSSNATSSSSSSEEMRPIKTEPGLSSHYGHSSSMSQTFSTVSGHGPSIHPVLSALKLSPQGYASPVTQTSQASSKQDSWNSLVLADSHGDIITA
T2 sequence (P42582 whole entry): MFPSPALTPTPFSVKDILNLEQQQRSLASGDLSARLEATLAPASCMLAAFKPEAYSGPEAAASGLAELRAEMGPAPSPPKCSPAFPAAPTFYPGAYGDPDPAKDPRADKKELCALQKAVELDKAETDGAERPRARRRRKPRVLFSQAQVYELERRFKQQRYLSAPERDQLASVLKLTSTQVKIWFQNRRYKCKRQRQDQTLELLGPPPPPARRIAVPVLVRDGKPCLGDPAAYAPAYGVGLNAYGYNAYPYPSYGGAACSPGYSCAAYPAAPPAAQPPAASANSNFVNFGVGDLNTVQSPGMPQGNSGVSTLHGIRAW
As to the kind of experiment: GATA4–NKX2-5 transcriptional synergy luciferase reporter assay (3xNKE reporter, COS-1 cells). The settings on record: COS-1, luciferase reporter activity relative to control.

The target in data set [4] is T3, GATA4 transcriptional activity (Mus musculus, UniProt Q08369).
T3 construct: expressed in transfected cells; host or cells: COS-1
T3 sequence (Q08369 whole entry): as the sequence (Q08369 whole entry) above
Nature of the data set: GATA4 luciferase reporter assay (tandem GATA-site reporter, COS-1 cells). The settings on record: COS-1, luciferase reporter activity relative to control.

Data set [5] deals with COS-1 cells. As to the kind of experiment: MTT assay (cell viability). The settings on record: cell viability. A general note: Tetrazolium assays rely on reduction of a dye to a coloured formazan, in cell work by metabolically active cells.
Data set [6] deals with COS-1 cells. Nature of the data set: LDH assay (necrosis).

Like-named read-outs stand apart in the source and are kept apart here.

T1 sequence (P42582 whole entry): as the sequence (P42582 whole entry) above

As for `CCN(c1ccc(NC(=O)c2cnsc2)cc1)C(C)C` [Compound 61], the figures for the activity at 3 µM in data set [1] (compound 3 µM), in data set [3] (compound 3 µM) and in data set [4] (compound 3 µM) were 38.2%, 28.8% and 71.1%, respectively. The activity at 10 µM amounted to 10.7% in data set [1] (compound 10 µM), 11.6% in data set [3] (compound 10 µM) and 20.4% in data set [4] (compound 10 µM). In addition, in data set [2] (30 μM, ET-1 added 1 h after compound), the “inhibition of the ET-1 hypertrophic response, BNP gene activity (in words)” value is “the most potent inhibitor of the hypertrophic response”. The “effect on BNP promoter activity in cardiomyocytes (in words)” value in data set [2] (neonatal cardiomyocytes, 24 h) is “most strongly inhibited the BNP promoter activity”.

As for `CCN(CC)c1ccc(NCc2c[nH]nc2-c2cc(F)cc(F)c2)cc1` [SI79], the activity at 3 µM in data set [1] (3 µM) is 88.7%. In data set [1] (10 µM), the activity at 10 µM was found to be 71.4%. In the data set with COS-1 cells [5], this compound yielded an MTT.1µM of 101.61, an MTT.3µM of 103.16, an MTT.10µM of 104.94 and an MTT.30µM of 103.16. In addition, in data set [3] (3 µM), the activity at 3 µM amounted to 98.9%. Also, in data set [3] (10 µM), the activity at 10 µM came to 92.2%. Also, in the data set with COS-1 cells [6], the LDH.1µM is listed as 2.87, the LDH.3µM stood at 1.38, the LDH.10µM was -0.15 and the LDH.30µM is recorded as -0.35. Further, the activity at 3 µM in data set [4] (3 µM) stood at 92.7%. Moreover, the activity at 10 µM in data set [4] (10 µM) was found to be 78.5%.

As to `CCN(CC)c1ccc(NC(=O)c2ccnn2-c2ccccc2)cc1` [SI88], the activity at 3 µM in data set [1] (3 µM) was 75.3%. For the same compound, in data set [1] (10 µM), the activity at 10 µM amounted to 60.7%. In the data set with COS-1 cells [5], this compound displayed an MTT.1µM of 105.89, an MTT.3µM of 89.83, an MTT.10µM of 83.67 and an MTT.30µM of 88.35. In addition, in data set [3] (3 µM), the activity at 3 µM worked out at 62.4%. The activity at 10 µM in data set [3] (10 µM) came out at 52.7%. For the same compound, in the data set with COS-1 cells [6], the LDH.1µM was found to be 2.08, the LDH.3µM was -0.13, the LDH.10µM is 0.07 and the LDH.30µM is on record as -1.27. For the same compound, in data set [4] (3 µM), the activity at 3 µM turned out to be 92.3%. For the same compound, the activity at 10 µM in data set [4] (10 µM) turned out to be 61.8%.

With `CCN(CC)c1ccc(NC(=O)c2c[nH]nc2-c2ccccc2)cc1` [SI89], in data set [1] (3 µM), the activity at 3 µM stood at 101%. For the same compound, in data set [1] (10 µM), the activity at 10 µM worked out at 89%. In the data set with COS-1 cells [5], this compound gave an MTT.1µM of 100.37, an MTT.3µM of 105.87, an MTT.10µM of 100.53 and an MTT.30µM of 96.92. Further, the activity at 3 µM in data set [3] (3 µM) was 80.7%. For the same compound, in data set [3] (10 µM), the activity at 10 µM was 93.5%. Moreover, in the data set with COS-1 cells [6], the LDH.1µM amounted to 2.32, the LDH.3µM worked out at 1.68, the LDH.10µM was 1.11 and the LDH.30µM is given as -1.15. In addition, the activity at 3 µM in data set [4] (3 µM) was 103%. The activity at 10 µM in data set [4] (10 µM) worked out at 81.8%.

`COc1ccc(-c2cc(N)nn2C(=O)c2c(-c3ccccc3)noc2C)cc1` [SI137, [3-Amino-5-(4-methoxyphenyl)-1H-pyrazol-1-yl] (5-methyl-3-phenylisoxazol-4-yl) methanone]: the activity at 3 µM in data set [1] (3 µM) is 88%. In addition, in data set [1] (10 µM), the activity at 10 µM is 65.2%. In the data set with COS-1 cells [5], the MTT.1µM came out at 100.57, the MTT.3µM came out at 105.12, the MTT.10µM is 104.9 and the MTT.30µM is 96.15. Moreover, in data set [3] (3 µM), the activity at 3 µM was found to be 90.6%. Besides, the activity at 10 µM in data set [3] (10 µM) was 72.1%. Further, in the data set on COS-1 cells [6], the LDH.1µM came out at 3.49, the LDH.3µM amounted to 2.98, the LDH.10µM is on record as 0.2 and the LDH.30µM was -2.71. Moreover, the activity at 3 µM in data set [4] (3 µM) is 85.3%. Besides, in data set [4] (10 µM), the activity at 10 µM turned out to be 76.5%.

Consider “ET-1: endothelin-1, a well-established hypertrophic agonist that activates the gene expression of both ANP and BNP [reference compound]”, for which the “increase in BNP gene activity” value in data set [2] (neonatal cardiomyocytes, 24 h) is listed as ~3 fold.
